Data reported in patent US20020072535A1 (priority 1997, published 2002).

Assays:
Format in all cases: in vivo
[1] = test system: Phytophthora infestans; test: whole plant or invertebrate; settings: in Solanum lycopersicum, 72 h, read-out: Efficiacy in %
[2] = test system: Fusarium nivale; test: Fusarium nivale test (triticale)/seed treatment; settings: triticale seed dressing, about 3 weeks after sowing
Procedure: Fusarium nivale test (triticale)/seed treatment
(§1) The active compounds are applied as dry seed dressings. These are prepared by extending the respective active compound or the active compound combination with ground minerals to give a finely pulverulent mixture which ensures uniform distribution on the seed surface.
(§2) To dress the seed, the infected seed together with the seed dressing is shaken for 3 minutes in a sealed glass flask.
2×100 corns of triticale are sown at a depth of 1 cm in standard soil and cultivated in a greenhouse at a temperature of about 10° C. and a relative atmospheric humidity of about 95% in seed trays which receive a light regimen of 15 hours per day.
About 3 weeks after sowing, the plants are evaluated for symptoms. 0% means an efficacy which corresponds to that of the control, while an efficacy of 100% means that no infection is observed.

[3] = test system: Pythium sp.; test: Pythium sp. test (pea)/seed treatment; settings: pea seed dressing, evaluation after 14 days
Procedure: Pythium sp. test (pea)/seed treatment
as §1, §2
2×50 corns of seed are sown at a depth of 2 cm in compost soil naturally infected with phythium sp. and cultivated in a greenhouse at a temperature of about 20° C. in seed trays which receive a light regimen of 15 hours per day.
Evaluation is carried out after 14 days. 0% means an efficacy which corresponds to that of the control, while an efficacy of 100% means that no infection is observed.

| SMILES | pest or weed control at 0.2 g/ha [1] [%] | other results |
| --- | --- | --- |
| O=C1c2ccccc2C(=O)N1SC(Cl)(Cl)Cl | – | pest or weed control at 2 g/ha [1]: 12% |
| Cc1cc(C)nc(Nc2ccccc2)n1 | – | pest or weed control at 1 g/ha [1]: 0% |
| Cc1cc(C2CC2)nc(Nc2ccccc2)n1 | – | pest or weed control at 1 g/ha [1]: 0% |
| CO/C=C(/C(=O)OC)c1ccccc1Oc1cc(Oc2ccccc2C#N)ncn1 | 51 | – |
| CO/C=C(/C(=O)OC)c1ccccc1COc1ccccc1C | 0 | – |
| CO/N=C(\C1=NOCCO1)c1ccccc1Oc1ncnc(Oc2ccccc2Cl)c1F | – | pest or weed control at 1 g/ha [1]: 27% |
| COc1ccc(C(=CC(=O)N2CCOCC2)c2ccc(Cl)cc2)cc1OC | 0 | – |
| CCNC(=O)NC(=O)C(C#N)=NOC | 0 | – |
| COCC(=O)N(c1c(C)cccc1C)C(C)C(=O)OC (centres unmarked) | 0 | – |
| CCC(C)(NC(=O)c1cc(Cl)c(C)c(Cl)c1)C(=O)CCl (centres unmarked) | 0 | – |
| Cc1ccc(C(C)NC(=O)C(NC(=O)OC(C)C)C(C)C)cc1 (centres unmarked) | 0 | pest or weed control at 1 g/ha [1]: 0% |
| CC(C)(C)C(O)C(Oc1ccc(-c2ccccc2)cc1)n1cncn1 (centres unmarked) | 24 | – |
| CC(C)(C)C(O)(CCc1ccc(Cl)cc1)Cn1cncn1 (centres unmarked) | 0 | – |
| CC(C)(C)C(=O)C(Oc1ccc(Cl)cc1)n1cncn1 (centres unmarked) | 0 | – |
| CC(C)(C)C(O)C(Oc1ccc(Cl)cc1)n1cncn1 (centres unmarked) | 0 | – |
| OC(Cc1ccccc1Cl)(Cn1nc[nH]c1=S)C1(Cl)CC1 (centres unmarked) | 0 | – |
| CC1(C(=O)Nc2ccc(O)c(Cl)c2Cl)CCCCC1 | – | pest or weed control at 5 g/ha [1]: 0% |
| Cc1noc(C)c1S(=O)(=O)n1c(Br)nc2cc3c(cc21)OC(F)(F)O3 [(Ia), 1-(3,5-dimethyl-isoxazole-4-sulphonyl)-2-bromo6,6-difluoro[1,3]-dioxolo-[4,5f]-benzimidazole] | 14 | Efficacy in % ([2]; 100 mg/kg of seed): 26%; Efficacy in % ([3]; 500 mg/kg of seed): 1%; pest or weed control at 1 g/ha [1]: 65% |
| Cc1noc(C)c1S(=O)(=O)n1c(Cl)nc2cc3c(cc21)OC(F)(F)O3 [(Ib), 1-(3,5-dimethyl-isoxazole-4-sulphonyl)-2-chloro-6,6-difluoro-[1,3]-dioxolo-[4,5f]-benzimidazole] | 37 | Efficacy in % ([2]; 100 mg/kg of seed): 0%; Efficacy in % ([2]; 500 mg/kg of seed): 0%; Efficacy in % ([3]; 1000 mg/kg of seed): 4%; pest or weed control at 1 g/ha [1]: 76% |
| O=[N+]([O-])/N=C1\NCCN1Cc1ccc(Cl)nc1 [(XXII), 1-[(6-chloro-3-pyridinyl)-methyl]-N-nitro-2-imidazolidineimine] | – | Efficacy in % ([2]; 100 mg/kg of seed): 0% |
| O=[N+]([O-])/N=C1\NCCN1Cc1ccc(Cl)nc1 [drawing 67] | 6 | – |
